Test results from PubChem BioAssay AID2060912 (Molecular Pharmacology Branch, DTP, NCI, 2025).

Tested on: HUVEC/MSC spheroids viability
Assay: Human HUVEC/MSC cell line growth inhibition [KRAS2];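 for viability, T/C: percent of DMSO vehicle control luminescence so 100% = untreated viability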
Settings: for IC50: curve of first compound; for viability, T/C: stronger effect = lower value; active = viability on the fitted dose curve at most 10% of control; inactive = the rest
Description: Multicellular complex tumor spheroid response to RAS pathway inhibitors in combination with a targeted agents in patient-derived cell lines with oncogenic KRAS variants from multiple cancer types
A high-throughput screen of multi-cell type tumor spheroids was designed to identify active combinations of targeted small molecules and KRAS pathway inhibitors. Complex spheroids include a stromal component modeled by human endothelial cells (HUVEC) and fibroblasts modeled by human mesenchymal stem cells (MSCs). The concentration ranges selected for each drug and investigational agent were based upon clinically achievable concentrations if the clinical Cmax of the agent was known. * [This particular assayID is a followup dataset requested by reviewers of the manuscript. It is a test of the HUVEC and MSC without the tumor cells, and was conducted using different drug plates and a different plate layout.]
Compounds. The drugs and investigational agents: BI-3406 (NSC825286), BAY-293 (NSC824723), batoprotafib (TNO155; NSC825523), sotorasib (AMG 510; NSC818433), MRTX1257 (NSC819558), elimusertib (BAY 1895344; NSC800525), molibresib (GSK525762; NSC774829), temuterkib (LY3214996; NSC803410), venetoclax (NSC766270), alisertib (NSC759677), olaparib (NSC753686), talazoparib (NSC767125), erdafitinib (NSC781556), ipatasertib (NSC767898), cabozantinib (NSC761068), nintedanib (NSC756659), abemaciclib (NSC768073), docetaxel (NSC628503), trametinib (NSC758246), and sapanisertib (NSC764658) were obtained from the National Cancer Institute (NCI) Developmental Therapeutics Program Chemical Repository. The FDA-approved anticancer drug set is available from the Developmental Therapeutics Program. […] The stock solutions were prepared in dimethyl sulfoxide (DMSO, Sigma-Aldrich, St. Louis, MO, cat. D2650) at 800-fold the tested concentration and stored at -70 degrees C prior to their use. All drugs and investigational agents were tested over a range starting from a high concentration at or near the clinical Cmax and decreasing in half-log increments. If the clinical Cmax for an agent had not been determined, the highest concentration tested was 10 microM.
Cell Culture. All cells were maintained in an incubator at 37 degrees C and 5% CO2 with 95% humidity. The PDC lines were cultured according to standard operating procedures established by the NCI PDMR (https://pdmr.cancer.gov/sops/default.htm). Briefly, all PDCs were thawed and cultured in Matrigel-coated flasks prepared with a working solution of 1X Ham's F-12 nutrient mix, without supplementation (Invitrogen, Waltham, MA, cat. 11765054), 100 U/mL penicillin-streptomycin (Invitrogen, cat. 15140122), and 2.5% Matrigel (Corning Inc., Corning, NY, cat. 354248) for the first three passages. All PDCs were cultured in complete DMEM/F-12 media containing advanced DMEM/F-12 (Invitrogen, cat. 12634028), 4.9% defined fetal bovine serum, heat inactivated (HyClone Laboratories Inc., Logan, UT, cat. SH30070.03HI), 389 ng/mL hydrocortisone (Sigma-Aldrich, cat. H4001), 9.7 ng/mL human EGF recombinant protein (Invitrogen, cat. PHG0313), 23.4 microg/mL adenine (Sigma-Aldrich, cat. A2786), 97.3 U/mL penicillin-streptomycin (Invitrogen, cat. 15140122), 1.9 mM L-glutamine (Invitrogen, cat. 25030081), and 9.7 microM Y-27632 dihydrochloride (Tocris Bioscience, Bristol, United Kingdom, cat. 1254). The PDCs were cultured in complete DMEM/F12 media without 9.7 microM Y-27632 dihydrochloride for at least two passages prior to the screen. The established cell line HOP-62 was cultured in RPMI 1640 medium, HEPES (Invitrogen, cat. 22400105) with 10% defined fetal bovine serum (HyClone Laboratories Inc., cat. SH30070.03) and 2 mM L-glutamine (Invitrogen, cat. 25030081). The pooled donor HUVEC were cultured in endothelial cell growth medium 2 (PromoCell, Heidelberg, Germany, cat. C-22011) and the hMSC were cultured in mesenchymal stem cell growth medium 2 (PromoCell, cat. C-28009). […]

CC(C)n1nc(-c2ccc3oc(N)nc3c2)c2c(N)ncnc21 + C=CC(=O)N1CCN(c2nc(OCC3CCCN3C)nc3c2CCN(c2cccc4cccc(C)c24)C3)CC1CC#N
inactive: viability, T/C (second compound 0.00949 µM, first compound 0.000316 µM) 80.6% | viability, T/C (second compound 0.00949 µM, first compound 0.001 µM) 64.1% | viability, T/C (second compound 0.00949 µM, first compound 0.00316 µM) 56.1% | viability, T/C (second compound 0.00949 µM, first compound 0.01 µM) 43.1% | viability, T/C (second compound 0.00949 µM, first compound 0.0316 µM) 48.3% | viability, T/C (second compound 0.00949 µM, first compound 0.1 µM) 39.8% | viability, T/C (second compound 0.03 µM, first compound 0.000316 µM) 69.5% | viability, T/C (second compound 0.03 µM, first compound 0.001 µM) 65.7% | viability, T/C (second compound 0.03 µM, first compound 0.00316 µM) 44.1% | viability, T/C (second compound 0.03 µM, first compound 0.01 µM) 54.1% | viability, T/C (second compound 0.03 µM, first compound 0.0316 µM) 46.8% | viability, T/C (second compound 0.03 µM, first compound 0.1 µM) 42% | viability, T/C (second compound 0.0949 µM, first compound 0.000316 µM) 80.1% | viability, T/C (second compound 0.0949 µM, first compound 0.001 µM) 64.7% | viability, T/C (second compound 0.0949 µM, first compound 0.00316 µM) 48.4% | viability, T/C (second compound 0.0949 µM, first compound 0.01 µM) 49% | viability, T/C (second compound 0.0949 µM, first compound 0.0316 µM) 41.1% | viability, T/C (second compound 0.0949 µM, first compound 0.1 µM) 40.8% | viability, T/C (second compound 0.3 µM, first compound 0.000316 µM) 59.7% | viability, T/C (second compound 0.3 µM, first compound 0.001 µM) 67.6% | viability, T/C (second compound 0.3 µM, first compound 0.00316 µM) 50.5% | viability, T/C (second compound 0.3 µM, first compound 0.01 µM) 43.5% | viability, T/C (second compound 0.3 µM, first compound 0.0316 µM) 40.5% | viability, T/C (second compound 0.3 µM, first compound 0.1 µM) 36% | viability, T/C (second compound 0.949 µM, first compound 0.000316 µM) 57.5% | viability, T/C (second compound 0.949 µM, first compound 0.001 µM) 47.5% | viability, T/C (second compound 0.949 µM, first compound 0.00316 µM) 42.7% | viability, T/C (second compound 0.949 µM, first compound 0.01 µM) 34.5% | viability, T/C (second compound 0.949 µM, first compound 0.0316 µM) 44.6% | viability, T/C (second compound 0.949 µM, first compound 0.1 µM) 44.3% | viability, T/C (second compound 3 µM, first compound 0.000316 µM) 62.5% | viability, T/C (second compound 3 µM, first compound 0.001 µM) 66.8% | viability, T/C (second compound 3 µM, first compound 0.00316 µM) 54.1% | viability, T/C (second compound 3 µM, first compound 0.01 µM) 58.6% | viability, T/C (second compound 3 µM, first compound 0.0316 µM) 45.3% | viability, T/C (second compound 3 µM, first compound 0.1 µM) 40.7%
3.35 nM: IC50 (second compound 0.3 µM)
6.33 nM: IC50 (second compound 0.00949 µM)
0.512 nM: IC50 (second compound 0.949 µM)
4.34 nM: IC50 (second compound 0.0949 µM)
22.2 nM: IC50 (second compound 3 µM)
6.8 nM: IC50 (second compound 0.03 µM)
